Reference: US11083735B2, “Methods for treating sleep disorders, sleep disturbances, and related symptoms using aminosterol compositions” (Enterin, Inc., priority 2017, dated 2021)

What was measured:
dogs, and rodents = conditions: administered orally; cited from earlier work
[1] = Duration of the aminosterol-induced response after a single oral dose; format: in vivo, human; conditions: single 200 mg oral dose
Description: The invention is also based on the discovery of unexpected and unprecedented activity of orally or nasally administered squalamine and related aminosterols (e.g., aminosterol 1436). The activity relates to stimulating a sequence of events within the human GI tract with therapeutic value. With respect to this activity, the sequence of events stimulated by an aminosterol such as squalamine or aminosterol 1436 involves the induction of an intestinal secretory response followed by a period of “small intestinal quieting,” and the subsequent passage of a normally formed bowel movement. These events are best explained as a consequence of the stimulation of a heretofore unknown physiological gastrointestinal response, in this invention shown to be controlled or initiated by an effective oral dose of an aminosterol such as squalamine or the related aminosterol, 1436 (Aminosterol-Induced GI Response). The activity relates to stimulating the neural connections between the enteric nervous system and the brain with therapeutic value, which can thereby impact sleeping disorders, sleeping disturbances, or related symptoms, as described herein. With respect to this activity, the sequence of events stimulated by an aminosterol involves the entrainment of the circadian clock, the suprachiasmatic nucleus, and an improvement in the quality of sleep. […]

isolated colons = assay: Isolated perfused colon, migrating muscular contractions (aged mouse; loperamide in young mouse); conditions: loperamide introduced into the lumen of a young mouse
Description: Isolated colons were mounted in an apparatus that permits continuous perfusion through the lumen, and the monitoring of the velocity, frequency and pressure of migrating muscular contractions (MMCs). Similar to the experience in humans, aging in mice is associated with diminished colonic peristaltic activity.
In humans, opiates markedly diminish GI motility and suppress fluid secretion causing constipation. […] When loperamide is introduced into the lumen of a young mouse colonic peristalsis is inhibited. When squalamine is added in presence of continued loperamide perfusion, the dysmotility is overridden.

[2] = single and repeat intravenous administration; cited from earlier work
[3] = in vivo; cited from earlier work

## CC(C)[C@@H](CC[C@@H](C)[C@H]1CC[C@H]2[C@@H]3[C@H](O)C[C@H]4C[C@@H](NCCCNCCCCNCCCN)CC[C@]4(C)[C@H]3CC[C@]12C)OS(=O)(=O)O [Aminosterol 1436]
dogs, and rodents
  anorectic activity: no anorectic activity
[1]
  duration of the aminosterol-induced response: about 4 days

## CN(C)C(=O)C(CCN1CCC(O)(c2ccc(Cl)cc2)CC1)(c1ccccc1)c1ccccc1 [loperamide, reference compound]
Isolated colons
  colonic peristalsis: inhibited

## CC(C)[C@@H](CC[C@@H](C)[C@H]1CC[C@H]2[C@@H]3[C@H](O)C[C@H]4C[C@@H](NCCCNCCCCN)CC[C@]4(C)[C@H]3CC[C@]12C)OS(=O)(=O)O.C[C@H](O)C(=O)O.O [squalamine lactate]
[2]
  well tolerated dose: at least 300 mg/m^2
[3]
  oral bioavailability: poorly bioavailable orally
